According to patent US11259516B2, “Method and apparatus for capsular delivery to plants” (priority 2017, dated 2022):

Legend:
[1] = tested on: Cryptostegia grandiflora (Rubber vine); set-up: key: X indicates that the given herbicide is suitable for controlling the given weed; settings: cited from earlier work
Mimosa pigra (Mimosa) = tested on: Mimosa pigra (Mimosa); set-up: key: X indicates that the given herbicide is suitable for controlling the given weed; settings: cited from earlier work
[2] = tested on: Vachellia nilotica (Prickly acacia); set-up: key: X indicates that the given herbicide is suitable for controlling the given weed; settings: cited from earlier work
[3] = tested on: western white gum (Eucalyptus argophloia); experiment: Example 2: glyphosate and hexazinone capsules, thinning trial in western white gum plantation
Procedure: The trial for this example was established at the HQP plantation near Jandowae on 6 Feb. 2018. The trees were planted in rows 4 m apart at 1.5 m spacing. Trees were 6-10 m tall. Trees to be maintained were marked and the other trees were treated.
Four treatments were used, with capsules as follows:
The capsules used were HPMC Size 0 Natural TR.V700 colour cap and body Vcaps (Suzhou Capsugel® Ltd, China). Capsules were hand packed using a Capsugel Profiller apparatus (https://www.capsugel.com/biopharmaceutical-products/profiller). An embodiment of apparatus 10 adapted to include handle 2201 (FIG. 17) was used to drill a hole into the stem, insert the herbicide capsule and seal with a wooden plug.
Herbicide capsules were applied to approximately 10 trees for each of the treatments. The number of capsules applied to each tree was independent of tree circumference which was measured at chest height. The tree circumferences range was from 20 to 34 centimetres. At 4 weeks, a small sample of trees were cut down with a chainsaw and cross-sections of stems containing the sites of insertion of the herbicide capsules removed. These stem pieces were returned to the laboratory and split open longitudinally through the insertion point. Tree health was assessed at 11 weeks (24 Apr. 2018) on a 0-4 scale with 0 being dead and 4 being healthy. Observations were made for evidence of flashback in untreated trees.

Acacia spp (Wattles) = tested on: Acacia spp (Wattles); set-up: key: X indicates that the given herbicide is suitable for controlling the given weed; settings: cited from earlier work
[4] = tested on: Ailanthus altissima (Tree-of-heaven); set-up: key: X indicates that the given herbicide is suitable for controlling the given weed; settings: cited from earlier work
[5] = tested on: Eucalyptus spp (Box, Eucalypt); set-up: key: X indicates that the given herbicide is suitable for controlling the given weed; settings: cited from earlier work
[6] = tested on: Lycium ferocissium (African boxthom); set-up: key: X indicates that the given herbicide is suitable for controlling the given weed; settings: cited from earlier work
[7] = tested on: Parkinsonia aculeata (Parkinsonia); set-up: key: X indicates that the given herbicide is suitable for controlling the given weed; settings: cited from earlier work
[8] = tested on: Cascabela thevetia (Yellow oleander); set-up: key: X indicates that the given herbicide is suitable for controlling the given weed; settings: cited from earlier work
[9] = tested on: Harungana madagarcariensis (Harungana); set-up: key: X indicates that the given herbicide is suitable for controlling the given weed; settings: cited from earlier work
Phoenix spp (Palms) = tested on: Phoenix spp (Palms); set-up: key: X indicates that the given herbicide is suitable for controlling the given weed; settings: cited from earlier work
[10] = tested on: Schinus terebinthifolius (Broad-leafed pepper tree); set-up: key: X indicates that the given herbicide is suitable for controlling the given weed; settings: cited from earlier work
[11] = tested on: Tamarix aphylla (Athel pine); set-up: key: X indicates that the given herbicide is suitable for controlling the given weed; settings: cited from earlier work
Angophora spp (Apple) = tested on: Angophora spp (Apple); set-up: key: X indicates that the given herbicide is suitable for controlling the given weed; settings: cited from earlier work
[12] = tested on: Bursaria spinosa (Australian blackthorn); set-up: key: X indicates that the given herbicide is suitable for controlling the given weed; settings: cited from earlier work
[13] = tested on: Caesalpinia decapetala (Thorny poinciana); set-up: key: X indicates that the given herbicide is suitable for controlling the given weed; settings: cited from earlier work
[14] = tested on: Chamaecytisus palmensis (Tree lucerne); set-up: key: X indicates that the given herbicide is suitable for controlling the given weed; settings: cited from earlier work
[15] = tested on: Jatropha gossypiifolia (Bellyache bush); set-up: key: X indicates that the given herbicide is suitable for controlling the given weed; settings: cited from earlier work
Lantana camara (Lantana) = tested on: Lantana camara (Lantana); set-up: key: X indicates that the given herbicide is suitable for controlling the given weed; settings: cited from earlier work
[16] = tested on: Ligustrum lucidum (Broad leaf privet); set-up: key: X indicates that the given herbicide is suitable for controlling the given weed; settings: cited from earlier work
[17] = tested on: Ligustrum sinense (Chinese privet); set-up: key: X indicates that the given herbicide is suitable for controlling the given weed; settings: cited from earlier work
[18] = tested on: Rubus anglocandicans (Blackberry); set-up: key: X indicates that the given herbicide is suitable for controlling the given weed; settings: cited from earlier work
[19] = tested on: Senna pendula (Winter senna); set-up: key: X indicates that the given herbicide is suitable for controlling the given weed; settings: cited from earlier work
[20] = tested on: Azadirachta indica (Neem); set-up: key: X indicates that the given herbicide is suitable for controlling the given weed; settings: cited from earlier work
[21] = tested on: Leucaena leucocephala (Leucaena); set-up: key: X indicates that the given herbicide is suitable for controlling the given weed; settings: cited from earlier work
[22] = tested on: Leptospermum spp. (Tea trees); set-up: key: X indicates that the given herbicide is suitable for controlling the given weed; settings: cited from earlier work
Salix species (Willows) = tested on: Salix species (Willows); set-up: key: X indicates that the given herbicide is suitable for controlling the given weed; settings: cited from earlier work
[23] = tested on: Senegalia catechu (Cutch tree); set-up: key: X indicates that the given herbicide is suitable for controlling the given weed; settings: cited from earlier work
[24] = tested on: Solanum mauritianum (Wild tobacco tree); set-up: key: X indicates that the given herbicide is suitable for controlling the given weed; settings: cited from earlier work
[25] = tested on: Ziziphus mauritania (Chinee apple); set-up: key: X indicates that the given herbicide is suitable for controlling the given weed; settings: cited from earlier work
[26] = tested on: Atalaya hemiglauca (Whitewood); set-up: key: X indicates that the given herbicide is suitable for controlling the given weed; settings: cited from earlier work
[27] = tested on: Calotropis procera (Rubber bush); set-up: key: X indicates that the given herbicide is suitable for controlling the given weed; settings: cited from earlier work
[28] = tested on: Eremophila mitchellii (False sandalwood); set-up: key: X indicates that the given herbicide is suitable for controlling the given weed; settings: cited from earlier work
Melalauca spp = tested on: Melalauca spp; set-up: key: X indicates that the given herbicide is suitable for controlling the given weed; settings: cited from earlier work
[29] = tested on: Planchonia careya (Cocky apple); set-up: key: X indicates that the given herbicide is suitable for controlling the given weed; settings: cited from earlier work
[30] = tested on: Vachellia famesiana (Mimosa bush); set-up: key: X indicates that the given herbicide is suitable for controlling the given weed; settings: cited from earlier work
Acer negudo (Box elder) = tested on: Acer negudo (Box elder); set-up: key: X indicates that the given herbicide is suitable for controlling the given weed; settings: cited from earlier work
[31] = tested on: Banksia spp (Bottlebrush); set-up: key: X indicates that the given herbicide is suitable for controlling the given weed; settings: cited from earlier work
[32] = tested on: Cestrum parqui (Green cestrum); set-up: key: X indicates that the given herbicide is suitable for controlling the given weed; settings: cited from earlier work
[33] = tested on: Cinnamonum camphora (Camphor laurel); set-up: key: X indicates that the given herbicide is suitable for controlling the given weed; settings: cited from earlier work
[34] = tested on: Crataegus sinaica (Azarola); set-up: key: X indicates that the given herbicide is suitable for controlling the given weed; settings: cited from earlier work
[35] = tested on: Olea europea sbsp africana (African olive); set-up: key: X indicates that the given herbicide is suitable for controlling the given weed; settings: cited from earlier work
[36] = tested on: Olea europea sbsp europa (European olive); set-up: key: X indicates that the given herbicide is suitable for controlling the given weed; settings: cited from earlier work
Prosopis spp (Mesquite) = tested on: Prosopis spp (Mesquite); set-up: key: X indicates that the given herbicide is suitable for controlling the given weed; settings: cited from earlier work
[37] = tested on: Ricinus communis (Castor oil plant); set-up: key: X indicates that the given herbicide is suitable for controlling the given weed; settings: in vivo; cited from earlier work

COc1c(Cl)ccc(Cl)c1C(=O)O [Dicamba]
suitability of herbicide for control of weed [1]: X
suitability of herbicide for control of weed (Mimosa pigra (Mimosa)): X

CN(C)C(=O)Nc1ccc(Cl)c(Cl)c1 [Diuron]
suitability of herbicide for control of weed [2]: X

CN(C)c1nc(=O)n(C2CCCCC2)c(=O)n1C [Hexazinone]
trees died / killed (health rating 0-4 scale, 0 dead) ([3]; Eucalyptus argophloia, 11 weeks post treatment, 1 or 2 capsules per tree): only a small percentage of trees killed
plant health (yellowing of the foliage) ([3]; Eucalyptus argophloia, 11 weeks, 1 or 2 capsules per tree): obvious deterioration in plant health
flashback in the trees marked for retention ([3]; in vivo): no flashback was observed
suitability of herbicide for control of weed (Acacia spp (Wattles)): X
suitability of herbicide for control of weed [4]: X
suitability of herbicide for control of weed [1]: X
suitability of herbicide for control of weed [5]: X
suitability of herbicide for control of weed [6]: X
suitability of herbicide for control of weed [7]: X
suitability of herbicide for control of weed [2]: X

CC(C)C1(C)N=C(c2ncccc2C(=O)O)NC1=O (stereo not drawn) [Imazapyr]
suitability of herbicide for control of weed [4]: X
suitability of herbicide for control of weed [8]: X
suitability of herbicide for control of weed [1]: X
suitability of herbicide for control of weed [9]: X
suitability of herbicide for control of weed (Phoenix spp (Palms)): X
suitability of herbicide for control of weed [10]: X
suitability of herbicide for control of weed [11]: X

COC(=O)c1ccccc1S(=O)(=O)NC(=O)Nc1nc(C)nc(OC)n1 [Metsulfuron-methyl]
suitability of herbicide for control of weed (Acacia spp (Wattles)): X
suitability of herbicide for control of weed [4]: X
suitability of herbicide for control of weed (Angophora spp (Apple)): X
suitability of herbicide for control of weed [12]: X
suitability of herbicide for control of weed [13]: X
suitability of herbicide for control of weed [14]: X
suitability of herbicide for control of weed [1]: X
suitability of herbicide for control of weed [5]: X
suitability of herbicide for control of weed [9]: X
suitability of herbicide for control of weed [15]: X
suitability of herbicide for control of weed (Lantana camara (Lantana)): X
suitability of herbicide for control of weed [16]: X
suitability of herbicide for control of weed [17]: X
suitability of herbicide for control of weed (Mimosa pigra (Mimosa)): X
suitability of herbicide for control of weed [18]: X
suitability of herbicide for control of weed [19]: X

Nc1c(Cl)c(Cl)nc(C(=O)O)c1Cl [Picloram]
suitability of herbicide for control of weed (Acacia spp (Wattles)): X
suitability of herbicide for control of weed [20]: X
suitability of herbicide for control of weed [14]: X
suitability of herbicide for control of weed (Lantana camara (Lantana)): X
suitability of herbicide for control of weed [21]: X
suitability of herbicide for control of weed [22]: X
suitability of herbicide for control of weed [16]: X
suitability of herbicide for control of weed [6]: X
suitability of herbicide for control of weed [18]: X
suitability of herbicide for control of weed (Salix species (Willows)): X
suitability of herbicide for control of weed [10]: X
suitability of herbicide for control of weed [23]: X
suitability of herbicide for control of weed [24]: X
suitability of herbicide for control of weed [25]: X

CNC(=O)N(C)c1nnc(C(C)(C)C)s1 [Tebuthiuron]
suitability of herbicide for control of weed (Acacia spp (Wattles)): X
suitability of herbicide for control of weed [26]: X
suitability of herbicide for control of weed [27]: X
suitability of herbicide for control of weed [1]: X
suitability of herbicide for control of weed [28]: X
suitability of herbicide for control of weed (Lantana camara (Lantana)): X
suitability of herbicide for control of weed [6]: X
suitability of herbicide for control of weed (Melalauca spp): X
suitability of herbicide for control of weed (Mimosa pigra (Mimosa)): X
suitability of herbicide for control of weed [7]: X
suitability of herbicide for control of weed [29]: X
suitability of herbicide for control of weed [30]: X
suitability of herbicide for control of weed [2]: X

O=C(O)COc1nc(Cl)c(Cl)cc1Cl [Triclopyr]
suitability of herbicide for control of weed (Acacia spp (Wattles)): X
suitability of herbicide for control of weed (Acer negudo (Box elder)): X
suitability of herbicide for control of weed [4]: X
suitability of herbicide for control of weed (Angophora spp (Apple)): X
suitability of herbicide for control of weed [20]: X
suitability of herbicide for control of weed [31]: X
suitability of herbicide for control of weed [12]: X
suitability of herbicide for control of weed [32]: X
suitability of herbicide for control of weed [33]: X
suitability of herbicide for control of weed [34]: X
suitability of herbicide for control of weed [1]: X
suitability of herbicide for control of weed [5]: X
suitability of herbicide for control of weed (Lantana camara (Lantana)): X
suitability of herbicide for control of weed [16]: X
suitability of herbicide for control of weed [17]: X
suitability of herbicide for control of weed [6]: X
suitability of herbicide for control of weed [35]: X
suitability of herbicide for control of weed [36]: X
suitability of herbicide for control of weed (Phoenix spp (Palms)): X
suitability of herbicide for control of weed (Prosopis spp (Mesquite)): X
suitability of herbicide for control of weed [37]: X
suitability of herbicide for control of weed [18]: X
suitability of herbicide for control of weed [10]: X
suitability of herbicide for control of weed [23]: X
suitability of herbicide for control of weed [11]: X
suitability of herbicide for control of weed [2]: X
suitability of herbicide for control of weed [25]: X
